Experimental data as given in patent publication US11701439B2, “DAZA chelators as ligands in liver imaging” (X-NUCLEAR DIAGNOSTICS GMBH, priority 2017, dated 2023).

Experiments:
[1] = physiological conditions; demetalation e.g. by apo-transferrin; cited from earlier work
[2] = Stability / storability of the ligands as labeling precursors; format: physicochemical
embryonated ostrich egg = experiment: Administration in ostrich egg and PET/CT examination (in ovo test); settings: in vivo in the incubated egg, approx. 10 MBq in PBS injected intravascularly
Description: The accumulation in the liver of the compounds according to the invention can be examined in a so-called ovo test, i.e. in vivo in an incubated ostrich egg. […] 2. Administration in Ostrich Egg and PET/CT Examination To carry out an intravascular injection in an embryonic egg, it is first necessary to find an […] blood vessel. This is done using a light-intensive […] lamp (Tempo No. 119, Brecker Ltd. & Co. KG, Ruethen, Germany or Powerlux […], Lyon Technologies Inc., Chula Vista, Calif., USA), with which the egg is illuminated through the eggshell in similar manner to a diaphanoscopy. After locating a large-caliber vessel, an approximately 2.5×5 cm rectangular piece is machined from the approximately 2 mm thick egg shell (Dremel® 3000, Dremel Europe-Bosch Powertools B.V., Breda, the Netherlands). Particular care must be taken to maintain the intactness of the inner membrane of the eggshell, which corresponds to the chorioallantoic membrane (CAM). After removing the eggshell lid-again using the […] lamp-the yolk vessel is punctured with a narrow 27G cannula and this is fixed to the eggshell with adhesive strips. The access thus created now allows both CT contrast media and radiopharmaceuticals to be injected via a short length of plastic tubing (Smiths MedicalTM 800/100/100 Smiths, Smiths Medical International Ltd, Ashford, Great Britain). […]

Row | stability of the ligand (storable as precursor for labeling with 68Ga or 64Cu) [2] | Structure (SMILES) | stability of the 68Ga complex of the ligand [1] | other results
1 | – | CCc1cccc(CC)c1NC(=O)CN(CC(=O)O)CC(=O)O [EHIDA] | do not form sufficiently stable ^68Ga complexes | –
2 | – | CCOc1ccc(C[C@@H](CN(CCN(CC(=O)O)CC(=O)O)CC(=O)O)N(CC(=O)O)CC(=O)O)cc1 [EOB-DTPA] | do not form sufficiently stable ^68Ga complexes | –
3 | stable | CCOc1ccc(CNC2CN(Cc3ccc(OCC)cc3O)CCN(Cc3ccc(OCC)cc3O)C2)c(O)c1 [TEOHB-DAZA, tris-N,N′,N″(4-ethoxy-2-hydroxybenzyl)-1,4-diazepan-6-amine] | – | –
4 | stable | COc1ccc(CNC2CN(Cc3ccc(OC)cc3O)CCN(Cc3ccc(OC)cc3O)C2)c(O)c1 [TMeOHB-DAZA, tris-N,N′,N″(4-methoxy-2-hydroxybenzyl)-1,4-diazepan-6-amine] | – | –
5 | – | CCOc1ccc(CNC2CN(Cc3ccc(OCC)cc3[O-])CCN(Cc3ccc(OCC)cc3[O-])C2)c([O-])c1.[68Ga+3] [^68Ga-[TEOHB-DAZA], ^68Ga[tris-N,N′,N″(4-ethoxy-2-hydroxybenzyl)-1,4-diazepan-6-amine]] | – | accumulation in the liver (embryonated ostrich egg): almost exclusive accumulation in the liver
